Measurements from patent US20070036839A1, “Phosphorylated glucomannane polysaccharides containing 1-6 and 1-2 linkages increase weight gain in poultry” (priority 2005, published 2007).

Experiment: Weekly hematology (CBC with differential); for Red Blood Cells HCT: test concentration or dose not given here; for White Blood Cells BASO: test concentration or dose not given here; for White Blood Cells EOS: test concentration or dose not given here; for White Blood Cells LYMP + MONO: test concentration or dose not given here; for White Blood Cells NEUT: test concentration or dose not given here; for White Blood Cells WBC: test concentration or dose not given here
Format: in vivo, Male Ross x Ross broiler chickens

Candida utilis phosphoglucomannan-soy bean proteins [CUPS]
Others Het/Poly (Day 3, dose group 1): 19.75% | Red Blood Cells HCT (Day 3, dose group 1): 30.67% | White Blood Cells BASO (Day 3, dose group 1): 127.50 X/uL | White Blood Cells EOS (Day 3, dose group 1): 0.00 X/uL | White Blood Cells LYMP + MONO (Day 3, dose group 1): 2590.00 X/uL | White Blood Cells NEUT (Day 3, dose group 1): 782.50 X/uL | White Blood Cells WBC (Day 3, dose group 1): 3000 µL⁻¹ | Others Het/Poly (Day 3, dose group 3): 31.67% | Red Blood Cells HCT (Day 3, dose group 3): 27.80% | White Blood Cells BASO (Day 3, dose group 3): 45.00 X/uL | White Blood Cells EOS (Day 3, dose group 3): 0.00 X/uL | White Blood Cells LYMP + MONO (Day 3, dose group 3): 2060.00 X/uL | White Blood Cells NEUT (Day 3, dose group 3): 1061.67 X/uL | White Blood Cells WBC (Day 3, dose group 3): 3170 µL⁻¹ | Others Het/Poly (Day 3, dose group 20): 27.00% | Red Blood Cells HCT (Day 3, dose group 20): 27.00% | White Blood Cells BASO (Day 3, dose group 20): 16.00 X/uL | White Blood Cells EOS (Day 3, dose group 20): 16.00 X/uL | White Blood Cells LYMP + MONO (Day 3, dose group 20): 2950.00 X/uL | White Blood Cells NEUT (Day 3, dose group 20): 818.00 X/uL | White Blood Cells WBC (Day 3, dose group 20): 3800 µL⁻¹ | Others Het/Poly (Day 7, dose group 1): 45.00% | White Blood Cells BASO (Day 7, dose group 1): 0.00 X/uL | White Blood Cells EOS (Day 7, dose group 1): 0.00 X/uL | White Blood Cells LYMP + MONO (Day 7, dose group 1): 5500.00 X/uL | White Blood Cells NEUT (Day 7, dose group 1): 4500.00 X/uL | White Blood Cells WBC (Day 7, dose group 1): 10000 µL⁻¹ | Others Het/Poly (Day 7, dose group 3): 19.67% | White Blood Cells BASO (Day 7, dose group 3): 146.67 X/uL | White Blood Cells EOS (Day 7, dose group 3): 0.00 X/uL | White Blood Cells LYMP + MONO (Day 7, dose group 3): 5273.33 X/uL | White Blood Cells NEUT (Day 7, dose group 3): 1246.67 X/uL | White Blood Cells WBC (Day 7, dose group 3): 6670 µL⁻¹ | Others Het/Poly (Day 7, dose group 20): 33.00% | White Blood Cells BASO (Day 7, dose group 20): 180.00 X/uL | White Blood Cells EOS (Day 7, dose group 20): 0.00 X/uL | White Blood Cells LYMP + MONO (Day 7, dose group 20): 4513.33 X/uL | White Blood Cells NEUT (Day 7, dose group 20): 2306.67 X/uL | White Blood Cells WBC (Day 7, dose group 20): 7000 µL⁻¹ | Others Het/Poly (Day 15, dose group 1): 37.00% | Red Blood Cells HCT (Day 15, dose group 1): 32.00% | White Blood Cells BASO (Day 15, dose group 1): 266.67 X/uL | White Blood Cells EOS (Day 15, dose group 1): 0.00 X/uL | White Blood Cells LYMP + MONO (Day 15, dose group 1): 6963.33 X/uL | White Blood Cells NEUT (Day 15, dose group 1): 4436.67 X/uL | White Blood Cells WBC (Day 15, dose group 1): 11670 µL⁻¹ | Others Het/Poly (Day 15, dose group 3): 30.67% | Red Blood Cells HCT (Day 15, dose group 3): 29.00% | White Blood Cells BASO (Day 15, dose group 3): 406.67 X/uL | White Blood Cells EOS (Day 15, dose group 3): 0.00 X/uL | White Blood Cells LYMP + MONO (Day 15, dose group 3): 8000.00 X/uL | White Blood Cells NEUT (Day 15, dose group 3): 3926.67 X/uL | White Blood Cells WBC (Day 15, dose group 3): 12330 µL⁻¹ | Others Het/Poly (Day 15, dose group 20): 31.67% | Red Blood Cells HCT (Day 15, dose group 20): 24.33% | White Blood Cells BASO (Day 15, dose group 20): 180.00 X/uL | White Blood Cells EOS (Day 15, dose group 20): 0.00 X/uL | White Blood Cells LYMP + MONO (Day 15, dose group 20): 5213.33 X/uL | White Blood Cells NEUT (Day 15, dose group 20): 2606.67 X/uL | White Blood Cells WBC (Day 15, dose group 20): 8000 µL⁻¹ | Others Het/Poly (Day 21, dose group 1): 28.33% | Red Blood Cells HCT (Day 21, dose group 1): 30.33% | White Blood Cells BASO (Day 21, dose group 1): 630.00 X/uL | White Blood Cells EOS (Day 21, dose group 1): 0.00 X/uL | White Blood Cells LYMP + MONO (Day 21, dose group 1): 7243.33 X/uL | White Blood Cells NEUT (Day 21, dose group 1): 3126.67 X/uL | White Blood Cells WBC (Day 21, dose group 1): 11000 µL⁻¹ | Others Het/Poly (Day 21, dose group 3): 29.67% | Red Blood Cells HCT (Day 21, dose group 3): 31.00% | White Blood Cells BASO (Day 21, dose group 3): 523.33 X/uL | White Blood Cells EOS (Day 21, dose group 3): 0.00 X/uL | White Blood Cells LYMP + MONO (Day 21, dose group 3): 6016.67 X/uL | White Blood Cells NEUT (Day 21, dose group 3): 2793.33 X/uL | White Blood Cells WBC (Day 21, dose group 3): 9330 µL⁻¹ | Others Het/Poly (Day 21, dose group 20): 35.50% | Red Blood Cells HCT (Day 21, dose group 20): 31.50% | White Blood Cells BASO (Day 21, dose group 20): 850.00 X/uL | White Blood Cells EOS (Day 21, dose group 20): 0.00 X/uL | White Blood Cells LYMP + MONO (Day 21, dose group 20): 6530.00 X/uL | White Blood Cells NEUT (Day 21, dose group 20): 4120.00 X/uL | White Blood Cells WBC (Day 21, dose group 20): 11500 µL⁻¹ | Others Het/Poly (Day 28, dose group 1): 56.33% | Red Blood Cells HCT (Day 28, dose group 1): 33.00% | White Blood Cells BASO (Day 28, dose group 1): 260.00 X/uL | White Blood Cells EOS (Day 28, dose group 1): 0.00 X/uL | White Blood Cells LYMP + MONO (Day 28, dose group 1): 2300.00 X/uL | White Blood Cells NEUT (Day 28, dose group 1): 4106.67 X/uL | White Blood Cells WBC (Day 28, dose group 1): 6670 µL⁻¹ | Others Het/Poly (Day 28, dose group 3): 59.00% | Red Blood Cells HCT (Day 28, dose group 3): 29.67% | White Blood Cells BASO (Day 28, dose group 3): 450.00 X/uL | White Blood Cells EOS (Day 28, dose group 3): 0.00 X/uL | White Blood Cells LYMP + MONO (Day 28, dose group 3): 3216.67 X/uL | White Blood Cells NEUT (Day 28, dose group 3): 5000.00 X/uL | White Blood Cells WBC (Day 28, dose group 3): 8670 µL⁻¹ | Others Het/Poly (Day 28, dose group 20): 44.00% | Red Blood Cells HCT (Day 28, dose group 20): 27.33% | White Blood Cells BASO (Day 28, dose group 20): 393.33 X/uL | White Blood Cells EOS (Day 28, dose group 20): 0.00 X/uL | White Blood Cells LYMP + MONO (Day 28, dose group 20): 3386.67 X/uL | White Blood Cells NEUT (Day 28, dose group 20): 3553.33 X/uL | White Blood Cells WBC (Day 28, dose group 20): 7330 µL⁻¹ | Others Het/Poly (Day 35, dose group 1): 33.00% | Red Blood Cells HCT (Day 35, dose group 1): 29.67% | White Blood Cells BASO (Day 35, dose group 1): 386.67 X/uL | White Blood Cells EOS (Day 35, dose group 1): 0.00 X/uL | White Blood Cells LYMP + MONO (Day 35, dose group 1): 4026.67 X/uL | White Blood Cells NEUT (Day 35, dose group 1): 2253.33 X/uL | White Blood Cells WBC (Day 35, dose group 1): 6670 µL⁻¹ | Others Het/Poly (Day 35, dose group 3): 31.00% | Red Blood Cells HCT (Day 35, dose group 3): 29.00% | White Blood Cells BASO (Day 35, dose group 3): 423.33 X/uL | White Blood Cells EOS (Day 35, dose group 3): 0.00 X/uL | White Blood Cells LYMP + MONO (Day 35, dose group 3): 4366.67 X/uL | White Blood Cells NEUT (Day 35, dose group 3): 2210.00 X/uL | White Blood Cells WBC (Day 35, dose group 3): 7000 µL⁻¹ | Others Het/Poly (Day 35, dose group 20): 34.67% | Red Blood Cells HCT (Day 35, dose group 20): 25.50% | White Blood Cells BASO (Day 35, dose group 20): 393.33 X/uL | White Blood Cells EOS (Day 35, dose group 20): 0.00 X/uL | White Blood Cells LYMP + MONO (Day 35, dose group 20): 4323.33 X/uL | White Blood Cells NEUT (Day 35, dose group 20): 2283.33 X/uL | White Blood Cells WBC (Day 35, dose group 20): 7000 µL⁻¹ | Others Het/Poly (Day 42, dose group 1): 31.33% | Red Blood Cells HCT (Day 42, dose group 1): 30.33% | White Blood Cells BASO (Day 42, dose group 1): 450.00 X/uL | White Blood Cells EOS (Day 42, dose group 1): 0.00 X/uL | White Blood Cells LYMP + MONO (Day 42, dose group 1): 6200.00 X/uL | White Blood Cells NEUT (Day 42, dose group 1): 3016.67 X/uL | White Blood Cells WBC (Day 42, dose group 1): 9670 µL⁻¹ | Others Het/Poly (Day 42, dose group 3): 34.67% | Red Blood Cells HCT (Day 42, dose group 3): 29.33% | White Blood Cells BASO (Day 42, dose group 3): 466.67 X/uL | White Blood Cells EOS (Day 42, dose group 3): 0.00 X/uL | White Blood Cells LYMP + MONO (Day 42, dose group 3): 5760.00 X/uL | White Blood Cells NEUT (Day 42, dose group 3): 3106.67 X/uL | White Blood Cells WBC (Day 42, dose group 3): 9330 µL⁻¹ | Others Het/Poly (Day 42, dose group 20): 35.00% | Red Blood Cells HCT (Day 42, dose group 20): 28.67% | White Blood Cells BASO (Day 42, dose group 20): 406.67 X/uL | White Blood Cells EOS (Day 42, dose group 20): 0.00 X/uL | White Blood Cells LYMP + MONO (Day 42, dose group 20): 4980.00 X/uL | White Blood Cells NEUT (Day 42, dose group 20): 3013.33 X/uL | White Blood Cells WBC (Day 42, dose group 20): 8670 µL⁻¹ | Others Het/Poly (Day 49, dose group 1): 27.33% | Red Blood Cells HCT (Day 49, dose group 1): 29.00% | White Blood Cells BASO (Day 49, dose group 1): 213.33 X/uL | White Blood Cells EOS (Day 49, dose group 1): 40.00 X/uL | White Blood Cells LYMP + MONO (Day 49, dose group 1): 5766.67 X/uL | White Blood Cells NEUT (Day 49, dose group 1): 2646.67 X/uL | White Blood Cells WBC (Day 49, dose group 1): 8670 µL⁻¹ | Others Het/Poly (Day 49, dose group 3): 34.33% | Red Blood Cells HCT (Day 49, dose group 3): 30.67% | White Blood Cells BASO (Day 49, dose group 3): 243.33 X/uL | White Blood Cells EOS (Day 49, dose group 3): 0.00 X/uL | White Blood Cells LYMP + MONO (Day 49, dose group 3): 5510.00 X/uL | White Blood Cells NEUT (Day 49, dose group 3): 2913.33 X/uL | White Blood Cells WBC (Day 49, dose group 3): 8670 µL⁻¹ | Others Het/Poly (Day 49, dose group 20): 43.33% | Red Blood Cells HCT (Day 49, dose group 20): 30.33% | White Blood Cells BASO (Day 49, dose group 20): 296.67 X/uL | White Blood Cells EOS (Day 49, dose group 20): 0.00 X/uL | White Blood Cells LYMP + MONO (Day 49, dose group 20): 4483.33 X/uL | White Blood Cells NEUT (Day 49, dose group 20): 3553.33 X/uL | White Blood Cells WBC (Day 49, dose group 20): 8330 µL⁻¹
